From patent EP2787958B1, “CHELIDONIUM MAJUS EXTRACTS AND THEIR USE IN THE TREATMENT OF SKIN DISORDERS AND PROMOTION OF SKIN REGENERATION” (priority 2011, dated 2013)
Like-named read-outs stand apart in the source and are kept apart here.

Columns and labels:
HDF cells [1] = assay: Summary of uses and toxic effects deduced from the cell assays (Table 1); format: cell-based, Human; conditions: for Cytotoxic / Irritant / Anti-fibrotic (prevention of scar formation, also from acne) / Cytoprotective (antioxidant, anti-inflammatory and anti-ageing; useful also in the treatment of acne) / Wound-healing: 24 hours
Summary of the method: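 HDF cells exposed to test substances at a given dosage for 24 h; uses and toxicity inferred from free-radical scavenging, mitochondrial dehydrogenase activity, IL-1β/IL-6 production (basal or induced by 100 µM H2O2), proliferation under standard growth conditions, and senescence-like morphology.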

interleukin 6 (IL-6) = assay: Inflammatory cytokines in cell supernatant (Mosaic ELISA microarray): IL-6; format: cell-based, Human; conditions: for IL-6 ng/(ml* No. of cells from photo) ± SD: 24 hours
HDF cells [2] = assay: Evaluation of cell morphology (Sirius Red stained cells, microscopy); format: cell-based, Human
Protocol: Their morphology, colour and shape have been evaluated by using the ImageJ software program.
The results of the effects on cell morphology, produced by the treatment with the test compounds for 24 hours at the concentrations specified, in HDF cells stained for collagen with PSR are shown in Figures 4a-d, 5a-d and 6a-f. These Figures allow evaluating cell morphology through light microscopy observation at magnifications of 100x, 200x and 400x for HDF cells cultured under standard growth conditions, in the presence of 100 µM H2O2 and in the presence of 34 ng/ml TGF-β1.

HDF cells [3] = assay: Evaluation of cell proliferation (counting of Sirius Red stained cells in photographs); conditions: for No. of cells from photo ± SD: 24 hours
interleukin 1β (IL-1β) = assay: Inflammatory cytokines in cell supernatant (Mosaic ELISA microarray): IL-1β; format: cell-based, Human; conditions: for IL-1β ng/(ml* No. of cells from photo) ± SD: 24 hours
[4] = tested on: Human dermal fibroblasts (HDF); assay: Mitochondrial dehydrogenase activity (WST-1 formazan assay) in HDF cells; conditions: for activity at 1 µM / activity at 10 µM: Homo sapiens, Fibroblast, read-out: % mitochondrial dehydrogenase activity ± SD; for Revitalizing agent: 24 hours
Protocol: Human dermal fibroblasts were used for assay at the 3rd T75 passage.
Mitochondrial dehydrogenase activity was measured in HDF, HEK and HUVEC cells by means of the formazan assay, using the WST-1 kit from Roche Diagnostic in accordance with the supplier's instructions. Briefly: the reagent was added (10 µl per well), the incubation was carried out for a further 2 hours or 4 hours, and, at the end of this time, the absorbance was read for 1 s at a wavelength of 450 nm in a Perkin Elmer Victor 2 Wallac microplate reader.
The activity percentage (% mitochondrial dehydrogenase activity) is defined as: % mitochondrial dehydrogenase activity = ((absorbance of treated cells - absorbance of blank) / (absorbance of control - absorbance of blank)) x 100.
The tests were performed with observations after 18 hours, seeding 8,000 cells per well, and after 42 hours, seeding 2,000 cells per well. Furthermore, in order to better analyze the dose/response curves for dihydroberberine, canadine and stylopine, curves were collected at 11 concentrations by seeding 2,000 cells per well with 46 hours incubation.
Dose/response curves are plotted at 6 concentrations. The tests were performed with observations after 24 hours, seeding 8,000 cells per well.

[5] = Anti-radical activity (decay of the DPPH radical); format: biochemical; conditions: for Anti-radical (skin protective): 24 hours
Summary of the method: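 Test substance in ethanol mixed 1:1 with 200 µM DPPH (stock concentrations), in quadruplicate. Absorbance read at 530 nm after 30 min, with vitamin C and ethanol-only controls. IC50 from variable-slope Hill regression of dose-activity curves.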

[6] = tested on: collagen produced by HDF cells; assay: Quantity of collagen produced by the cells (elution of Sirius Red)
[7] = Dose 1 µm (coptisine: 1 pm [sic])

C[n+]1cc2c3c(ccc2c2ccc4cc5c(cc4c21)OCO5)OCO3 [sanguinarine]
Cytotoxic (HDF cells [1]; [7]): Yes (senescent morph., ↓dehydrogenase) | Irritant (HDF cells [1]; [7]): Yes (↑IL-6, ↑IL-1β) | Cytotoxic (HDF cells [1]; Dose 10 µm): Yes (cell death, ↓dehydrogenase) | Irritant (HDF cells [1]; Dose 10 µm): Yes (↑IL-6, ↑IL-1β) | concentrations at which toxic (cytotoxic and irritant) effects are shown (HDF cells [1]; exposure for 24 hours): greater than or equal to 1 µM | IL-6 ng/(ml* No. of cells from photo) ± SD (interleukin 6 (IL-6); 1 µM, 34 ng/ml TGF-β1): 2167±279 ng/(ml* No. of cells from photo) | IL-6 ng/(ml* No. of cells from photo) ± SD (interleukin 6 (IL-6); 1 µM, 100 µM H2O2): 2374±264 ng/(ml* No. of cells from photo) | IL-6 ng/(ml* No. of cells from photo) ± SD (interleukin 6 (IL-6); 1 µM, Standard conditions): 470±32 ng/(ml* No. of cells from photo) | IL-6 ng/(ml* No. of cells from photo) ± SD (interleukin 6 (IL-6); 10 µM, 34 ng/ml TGF-β1): 56600±9000 ng/(ml* No. of cells from photo) | IL-6 ng/(ml* No. of cells from photo) ± SD (interleukin 6 (IL-6); 10 µM, 100 µM H2O2): 66300±5000 ng/(ml* No. of cells from photo) | IL-6 ng/(ml* No. of cells from photo) ± SD (interleukin 6 (IL-6); 10 µM, Standard conditions): 17786±27 ng/(ml* No. of cells from photo) | cell morphology (HDF cells [2]; 1 µM): senescent morphology | cell morphology (HDF cells [2]; 10 µM): complete absence of cells | No. of cells from photo ± SD (HDF cells [3]; 1 µM, 34 ng/ml TGF-β1): 86±7 | No. of cells from photo ± SD (HDF cells [3]; 1 µM, 100 µM H2O2): 110±18 | No. of cells from photo ± SD (HDF cells [3]; 1 µM, Standard conditions): 30±9 | No. of cells from photo ± SD (HDF cells [3]; 10 µM, 34 ng/ml TGF-β1): 1±0 | No. of cells from photo ± SD (HDF cells [3]; 10 µM, 100 µM H2O2): 1±0 | No. of cells from photo ± SD (HDF cells [3]; 10 µM, Standard conditions): 1±0 | IL-1β ng/(ml* No. of cells from photo) ± SD (interleukin 1β (IL-1β); 1 µM, 34 ng/ml TGF-β1): 297±13 ng/(ml* No. of cells from photo) | IL-1β ng/(ml* No. of cells from photo) ± SD (interleukin 1β (IL-1β); 1 µM, 100 µM H2O2): 253±9 ng/(ml* No. of cells from photo) | IL-1β ng/(ml* No. of cells from photo) ± SD (interleukin 1β (IL-1β); 1 µM, Standard conditions): 75±1 ng/(ml* No. of cells from photo) | IL-1β ng/(ml* No. of cells from photo) ± SD (interleukin 1β (IL-1β); 10 µM, 34 ng/ml TGF-β1): 16400±5000 ng/(ml* No. of cells from photo) | IL-1β ng/(ml* No. of cells from photo) ± SD (interleukin 1β (IL-1β); 10 µM, 100 µM H2O2): 18400±2800 ng/(ml* No. of cells from photo) | IL-1β ng/(ml* No. of cells from photo) ± SD (interleukin 1β (IL-1β); 10 µM, Standard conditions): 4535±81 ng/(ml* No. of cells from photo) | concentrations above which marked inhibition of mitochondrial dehydrogenase activity is caused ([4]; 18 h and 42 h): higher than 1 µM | activity at 1 µM ([4]; 18 h): 83.3 ± 6.83% | activity at 10 µM ([4]; 18 h): -1.57 ± 1.65% | activity at 1 µM ([4]; 42 h): -2.8 ± 3.67% | activity at 10 µM ([4]; 42 h): -16.6 ± 2.55%

COc1ccc2c(c[n+](C)c3c4cc5c(cc4ccc23)OCO5)c1OC [chelerythrine]
Anti-fibrotic (prevention of scar formation, also from acne) (HDF cells [1]; [7]): Yes (↓collagen, ↓IL-6, ↓IL-1β) | Cytoprotective (antioxidant, anti-inflammatory and anti-ageing; useful also in the treatment of acne) (HDF cells [1]; [7]): Yes (↓IL-6, ↓IL-1β) | Cytotoxic (HDF cells [1]; [7]): No | Irritant (HDF cells [1]; [7]): No | Wound-healing (HDF cells [1]; [7]): Yes (↑prolif, ↓IL-1β) | Anti-fibrotic (prevention of scar formation, also from acne) (HDF cells [1]; Dose 10 µm): No | Cytoprotective (antioxidant, anti-inflammatory and anti-ageing; useful also in the treatment of acne) (HDF cells [1]; Dose 10 µm): No | Cytotoxic (HDF cells [1]; Dose 10 µm): Yes (cell death, ↓dehydrogenase) | Irritant (HDF cells [1]; Dose 10 µm): Yes (↑IL-6, ↑IL-1β) | Wound-healing (HDF cells [1]; Dose 10 µm): No | concentrations at which no toxic (cytotoxic and irritant) effects are shown (HDF cells [1]; exposure for 24 hours): less than or equal to 1 µM | IL-6 production (effect in words) (interleukin 6 (IL-6); 1 µM, 34 ng/ml TGF-β1): antagonizes the production of IL-6 | IL-6 ng/(ml* No. of cells from photo) ± SD (interleukin 6 (IL-6); 1 µM, 34 ng/ml TGF-β1): 510±43 ng/(ml* No. of cells from photo) | IL-6 production (effect in words) (interleukin 6 (IL-6); 1 µM, 100 µM H2O2): antagonizes the production of IL-6 | IL-6 ng/(ml* No. of cells from photo) ± SD (interleukin 6 (IL-6); 1 µM, 100 µM H2O2): 626±8 ng/(ml* No. of cells from photo) | IL-6 ng/(ml* No. of cells from photo) ± SD (interleukin 6 (IL-6); 1 µM, Standard conditions): 396±14 ng/(ml* No. of cells from photo) | IL-6 production (effect in words) (interleukin 6 (IL-6); 1 µM, standard conditions): inhibits the production of IL-6 | IL-6 production (effect in words) (interleukin 6 (IL-6); 10 µM, 34 ng/ml TGF-β1): stimulates IL-6 production | IL-6 ng/(ml* No. of cells from photo) ± SD (interleukin 6 (IL-6); 10 µM, 34 ng/ml TGF-β1): 4652±243 ng/(ml* No. of cells from photo) | IL-6 production (effect in words) (interleukin 6 (IL-6); 10 µM, 100 µM H2O2): stimulates IL-6 production | IL-6 ng/(ml* No. of cells from photo) ± SD (interleukin 6 (IL-6); 10 µM, 100 µM H2O2): 5844±328 ng/(ml* No. of cells from photo) | IL-6 ng/(ml* No. of cells from photo) ± SD (interleukin 6 (IL-6); 10 µM, Standard conditions): 572±14 ng/(ml* No. of cells from photo) | IL-6 production (effect in words) (interleukin 6 (IL-6); 10 µM, standard conditions): stimulates IL-6 production | % DPPH activity ([5]; 1 mM, 30 minutes): 115% | Anti-radical (skin protective) [5, 7]: No | Anti-radical (skin protective) ([5]; Dose 10 µm): No | collagen production (effect in words) ([6]; 1 µM, 34 ng/ml TGF-β1): antagonizes the stimulation of collagen induced by 34 ng/ml TGF-β1 | collagen production (effect in words) ([6]; 1 µM, 100 µM H2O2): tendency to stimulate collagen production | collagen production (effect in words) ([6]; 1 µM, standard conditions): tendency to inhibit collagen production | collagen production (effect in words) ([6]; 10 µM, 34 ng/ml TGF-β1): stimulates collagen production | collagen production (effect in words) ([6]; 10 µM, 100 µM H2O2): stimulates collagen production | collagen production (effect in words) ([6]; 10 µM, standard conditions): stimulates collagen production | cell proliferation (effect in words) (HDF cells [3]; 1 µM): tendency to stimulate cell proliferation | No. of cells from photo ± SD (HDF cells [3]; 1 µM, 34 ng/ml TGF-β1): 201±15 | No. of cells from photo ± SD (HDF cells [3]; 1 µM, 100 µM H2O2): 289±14 | No. of cells from photo ± SD (HDF cells [3]; 1 µM, Standard conditions): 229±20 | cell proliferation (effect in words) (HDF cells [3]; 10 µM): marked inhibition of proliferation | No. of cells from photo ± SD (HDF cells [3]; 10 µM, 34 ng/ml TGF-β1): 10±4 | No. of cells from photo ± SD (HDF cells [3]; 10 µM, 100 µM H2O2): 10±5 | No. of cells from photo ± SD (HDF cells [3]; 10 µM, Standard conditions): 3±3 | IL-1β production (effect in words) (interleukin 1β (IL-1β); 1 µM, 34 ng/ml TGF-β1): antagonizes the production of IL-1β | IL-1β ng/(ml* No. of cells from photo) ± SD (interleukin 1β (IL-1β); 1 µM, 34 ng/ml TGF-β1): 98±10 ng/(ml* No. of cells from photo) | IL-1β production (effect in words) (interleukin 1β (IL-1β); 1 µM, 100 µM H2O2): antagonizes the production of IL-1β | IL-1β ng/(ml* No. of cells from photo) ± SD (interleukin 1β (IL-1β); 1 µM, 100 µM H2O2): 69±20 ng/(ml* No. of cells from photo) | IL-1β ng/(ml* No. of cells from photo) ± SD (interleukin 1β (IL-1β); 1 µM, Standard conditions): 96±101 ng/(ml* No. of cells from photo) | IL-1β production (effect in words) (interleukin 1β (IL-1β); 1 µM, standard conditions): inhibits the production of IL-1β | IL-1β production (effect in words) (interleukin 1β (IL-1β); 10 µM, 34 ng/ml TGF-β1): stimulates IL-1β production | IL-1β ng/(ml* No. of cells from photo) ± SD (interleukin 1β (IL-1β); 10 µM, 34 ng/ml TGF-β1): 1632±93 ng/(ml* No. of cells from photo) | IL-1β production (effect in words) (interleukin 1β (IL-1β); 10 µM, 100 µM H2O2): stimulates IL-1β production | IL-1β ng/(ml* No. of cells from photo) ± SD (interleukin 1β (IL-1β); 10 µM, 100 µM H2O2): 1735±469 ng/(ml* No. of cells from photo) | IL-1β ng/(ml* No. of cells from photo) ± SD (interleukin 1β (IL-1β); 10 µM, Standard conditions): 144±4 ng/(ml* No. of cells from photo) | IL-1β production (effect in words) (interleukin 1β (IL-1β); 10 µM, standard conditions): stimulates IL-1β production | concentrations above which the predominant effect is inhibition of mitochondrial dehydrogenase activity [4]: higher than 1 nM | mitochondrial dehydrogenase activity (effect in words) ([4]; 1 µM, 18 h): stimulation of mitochondrial dehydrogenase activity | Revitalizing agent [4, 7]: Yes | Revitalizing agent ([4]; Dose 10 µm): No | activity at 1 µM ([4]; 18 h): 107 ± 10.5% | activity at 10 µM ([4]; 18 h): 0.87 ± 0.74% | activity at 1 µM ([4]; 42 h): 63.9 ± 4.3% | activity at 10 µM ([4]; 42 h): 0.63 ± 8.46% | inhibitory power toward the mitochondrial dehydrogenase activity ([4]; skin fibroblast cells and/or keratinocytes): marked inhibitory power
